Data: patent publication US7342011B2, “Rifamycin analogs and uses thereof” (priority 2003, dated 2008)
≈ marks a conversion by molar mass, not a printed value.

Legend:
Assay type in all cases: cell-based
S. aureus = experiment: MIC assay, S. aureus
S. pneumo. = experiment: MIC assay, S. pneumo.
E. faecalis = experiment: MIC assay, E. faecalis
H. flu = experiment: MIC assay, H. flu
E. coli = experiment: MIC assay, E. coli

| SMILES | MIC (μg/mL) S. aureus (S. aureus) [µg/mL] | MIC (μg/mL) S. pneumo. (S. pneumo.) [µg/mL] | MIC (μg/mL) E. faecalis (E. faecalis) [µg/mL] | MIC (μg/mL) H. flu (H. flu) [µg/mL] | MIC (μg/mL) E. coli (E. coli) [µg/mL] |
| --- | --- | --- | --- | --- | --- |
| CCOC(=O)NC1CCN(c2cc(O)c3nc4c5c6c7c(C)c(O)c5c(=O)c(c-4oc3c2)NC(=O)/C(C)=C\C=C\[C@H](C)[C@H](O)[C@@H](C)[C@@H](O)[C@@H](C)[C@H](OC(C)=O)[C@H](C)[C@@H](OC)/C=C/O[C@@](C)(O7)C6=O)CC1 [Compound 1] | 0.008 (≈ 0.00824 µM) | 0.00025 (≈ 0.000257 µM) | 2 (≈ 2.06 µM) | 2 (≈ 2.06 µM) | >8 |
| CCOC(=O)NC1CCN(c2cc(O)c3nc4c5c6c7c(C)c(O)c5c(=O)c(c-4oc3c2)NC(=O)C(C)=CC=CC(C)C(O)C(C)C(O)C(C)C(O)C(C)C(OC)C=COC(C)(O7)C6=O)CC1 (centres unmarked) [Compound 3, 25-O-deacetyl-3′-hydroxy-5′-(4-ethylcarbamyl-1-piperidinyl)benzoxazinorifamycin] | 0.03 (≈ 0.0323 µM) | 0.0005 (≈ 0.000538 µM) | 0.12 (≈ 0.129 µM) | 0.25 (≈ 0.269 µM) | 4 (≈ 4.31 µM) |
| CCCNC(=O)NC1CCN(c2cc(O)c3nc4c5c6c7c(C)c(O)c5c(=O)c(c-4oc3c2)NC(=O)C(C)=CC=CC(C)C(O)C(C)C(O)C(C)C(O)C(C)C(OC)C=COC(C)(O7)C6=O)CC1 (centres unmarked) [Compound 26, 25-O-deacetyl-3′-hydroxy-5′-[4-propyluryl-1-piperidinyl]benzoxazinorifamycin] | 0.008 (≈ 0.00849 µM) | 0.00012 (≈ 0.000127 µM) | 2 (≈ 2.12 µM) | 1 (≈ 1.06 µM) | >8 |
| COC1C=COC2(C)Oc3c(C)c(O)c4c(=O)c(c5oc6cc(N7CCC(NS(C)(=O)=O)CC7)cc(O)c6nc-5c4c3C2=O)NC(=O)C(C)=CC=CC(C)C(O)C(C)C(O)C(C)C(O)C1C (centres unmarked) [Compound 27] | 0.015 (≈ 0.016 µM) | 0.001 (≈ 0.00107 µM) | 1 (≈ 1.07 µM) | 0.12 (≈ 0.128 µM) | >8 |
| COC1C=COC2(C)Oc3c(C)c(O)c4c(=O)c(c5oc6cc(N7CCC(NC(=O)OC(C)C)CC7)cc(O)c6nc-5c4c3C2=O)NC(=O)C(C)=CC=CC(C)C(O)C(C)C(O)C(C)C(O)C1C (centres unmarked) [Compound 29, 25-O-deacetyl-3′-hydroxy-5′-[4-isopropylcarbamyl-1-piperidinyl]benzoxazinorifamycin] | 0.008 (≈ 0.00848 µM) | 0.00012 (≈ 0.000127 µM) | 2 (≈ 2.12 µM) | 1 (≈ 1.06 µM) | >8 |
| CCCS(=O)(=O)NC1CCN(c2cc(O)c3nc4c5c6c7c(C)c(O)c5c(=O)c(c-4oc3c2)NC(=O)/C(C)=C\C=C\[C@H](C)[C@H](O)[C@@H](C)[C@@H](O)[C@@H](C)[C@H](OC(C)=O)[C@H](C)[C@@H](OC)/C=C/O[C@@](C)(O7)C6=O)CC1 [Compound 35] | 0.015 (≈ 0.0149 µM) | 0.00025 (≈ 0.000249 µM) | 4 (≈ 3.98 µM) | 0.5 (≈ 0.497 µM) | 8 (≈ 7.96 µM) |
| CCCC(=O)NC1CCN(c2cc(O)c3nc4c5c6c7c(C)c(O)c5c(=O)c(c-4oc3c2)NC(=O)C(C)=CC=CC(C)C(O)C(C)C(O)C(C)C(O)C(C)C(OC)C=COC(C)(O7)C6=O)CC1 (centres unmarked) [Compound 36, 25-O-deacetyl-3′-hydroxy-5′-[4-butanamide-1-piperidinyl]benzoxazinorifamycin] | – | – | – | – | >8 |
| CCNC(=O)NC1CCN(c2cc(O)c3nc4c5c6c7c(C)c(O)c5c(=O)c(c-4oc3c2)NC(=O)C(C)=CC=CC(C)C(O)C(C)C(O)C(C)C(O)C(C)C(OC)C=COC(C)(O7)C6=O)CC1 (centres unmarked) [Compound 37, 25-O-deacetyl-3′-hydroxy-5′-[4-ethyluryl-1-piperidinyl]benzoxazinorifamycin] | – | – | – | – | >8 |
| COC1C=COC2(C)Oc3c(C)c(O)c4c(=O)c(c5oc6cc(N7CCC(NS(=O)(=O)C(F)(F)F)CC7)cc(O)c6nc-5c4c3C2=O)NC(=O)C(C)=CC=CC(C)C(O)C(C)C(O)C(C)C(O)C1C (centres unmarked) [Compound 38] | – | – | – | – | >8 |
| CO[C@H]1/C=C/O[C@@]2(C)Oc3c(C)c(O)c4c(=O)c(c5oc6cc(N7CCC(N)CC7)cc(O)c6nc-5c4c3C2=O)NC(=O)/C(C)=C\C=C\[C@H](C)[C@H](O)[C@@H](C)[C@@H](O)[C@@H](C)[C@H](O)[C@@H]1C [Compound 39, 25-O-deacetyl-3′-hydroxy-5′-[4-amino-1-piperidinyl]benzoxazinorifamycin] | 0.03 (≈ 0.035 µM) | 0.001 (≈ 0.00117 µM) | 2 (≈ 2.33 µM) | 0.25 (≈ 0.292 µM) | >8 |
| CCOC(=O)N1CCC[C@@H]2CN(c3cc(O)c4nc5c6c7c8c(C)c(O)c6c(=O)c(c-5oc4c3)NC(=O)/C(C)=C\C=C\[C@H](C)[C@H](O)[C@@H](C)[C@@H](O)[C@@H](C)[C@H](OC(C)=O)[C@H](C)[C@@H](OC)/C=C/O[C@@](C)(O8)C7=O)C[C@@H]21 [Compound 40, 3′-hydroxy-5′-[1-ethylcarbamyl-(4aR,7aR)-octahydro-6H-pyrrolo[3,4-b]pyridin-6-yl]benzoxazinorifamycin] | 0.06 (≈ 0.0602 µM) | 0.008 (≈ 0.00802 µM) | 1 (≈ 1 µM) | 0.5 (≈ 0.501 µM) | >8 |
| COC1C=COC2(C)Oc3c(C)c(O)c4c(=O)c(c5oc6cc(N7CCC(NC(C)=O)CC7)cc(O)c6nc-5c4c3C2=O)NC(=O)C(C)=CC=CC(C)C(O)C(C)C(O)C(C)C(O)C1C (centres unmarked) [Compound 43, 25-O-deacetyl-3′-hydroxy-5′-[4-acetamide-1-piperidinyl]benzoxazinorifamycin] | – | – | – | – | >8 |
| COC1C=COC2(C)Oc3c(C)c(O)c4c(=O)c(c5oc6cc(N7CCC(NC(=O)OC(C)(C)C)CC7)cc(O)c6nc-5c4c3C2=O)NC(=O)C(C)=CC=CC(C)C(O)C(C)C(O)C(C)C(O)C1C (centres unmarked) [Compound 52, 25-O-deacetyl-3′-hydroxy-5′-[4-(2,2-dimethylethyl)carbamyl-1-piperidinyl]benzoxazinorifamycin] | – | – | – | – | >8 |
| COC1C=COC2(C)Oc3c(C)c(O)c4c(=O)c(c5oc6cc(N7CC8C(C7)C8N(C)C)cc(O)c6nc-5c4c3C2=O)NC(=O)C(C)=CC=CC(C)C(O)C(C)C(O)C(C)C(OC(C)=O)C1C [Compound 53, 3′-hydroxy-5′-[6-N,N-dimethylamino-(1R,5S)-3-azabicyclo[3.1.0]hex-3-yl]benzoxazinorifamycin] | – | – | – | – | >8 |
| COC1C=COC2(C)Oc3c(C)c(O)c4c(=O)c(c5oc6cc(N7CC8C(C7)C8N(C)C)cc(O)c6nc-5c4c3C2=O)NC(=O)C(C)=CC=CC(C)C(O)C(C)C(O)C(C)C(O)C1C [Compound 54, 3′-hydroxy-5′-[6-N,N-dimethylamino-(1R,5S)-3-azabicyclo[3.1.0]hex-3-yl]benzoxazinorifamycin] | – | – | – | – | >8 |
| COC1C=COC2(C)Oc3c(C)c(O)c4c(=O)c(c5oc6cc(N7CCC(CNC(C)=O)CC7)cc(O)c6nc-5c4c3C2=O)NC(=O)C(C)=CC=CC(C)C(O)C(C)C(O)C(C)C(O)C1C (centres unmarked) [Compound 56, 25-O-deacetyl-3′-hydroxy-5′-[4-acetylaminomethyl-1-piperidinyl]benzoxazinorifamycin] | – | – | – | – | 8 (≈ 8.76 µM) |
| CCOC(=O)NCC1CCN(c2cc(O)c3nc4c5c6c7c(C)c(O)c5c(=O)c(c-4oc3c2)NC(=O)C(C)=CC=CC(C)C(O)C(C)C(O)C(C)C(O)C(C)C(OC)C=COC(C)(O7)C6=O)CC1 (centres unmarked) [Compound 60, 25-O-deacetyl-3′-hydroxy-5′-[4-ethylcarbamylmethyl-1-piperidinyl]benzoxazinorifamycin] | – | – | – | – | >8 |
| COC1C=COC2(C)Oc3c(C)c(O)c4c(=O)c(c5oc6cc(N7CCC(c8ccccc8)CC7)cc(O)c6nc-5c4c3C2=O)NC(=O)C(C)=CC=CC(C)C(O)C(C)C(O)C(C)C(O)C1C (centres unmarked) [Compound 62, 25-O-deacetyl-3′-hydroxy-5′-[4-phenyl-1-piperidinyl]benzoxazinorifamycin] | – | – | – | – | >8 |
| COCCOC(=O)NC1CCN(c2cc(O)c3nc4c5c6c7c(C)c(O)c5c(=O)c(c-4oc3c2)NC(=O)C(C)=CC=CC(C)C(O)C(C)C(O)C(C)C(O)C(C)C(OC)C=COC(C)(O7)C6=O)CC1 (centres unmarked) [Compound 63, 25-O-deacetyl-3′-hydroxy-5′-[4-methoxyethylcarbamyl-1-piperidinyl]benzoxazinorifamycin] | – | – | – | – | 8 (≈ 8.34 µM) |
| CCCS(=O)(=O)NC1CCN(c2cc(O)c3nc4c5c6c7c(C)c(O)c5c(=O)c(c-4oc3c2)NC(=O)C(C)=CC=CC(C)C(O)C(C)C(O)C(C)C(O)C(C)C(OC)C=COC(C)(O7)C6=O)CC1 (centres unmarked) [Compound 67] | – | – | – | – | >8 |
| COC1C=COC2(C)Oc3c(C)c(O)c4c(=O)c(c5oc6cc(N7CCC(C)(NC(C)=O)CC7)cc(O)c6nc-5c4c3C2=O)NC(=O)C(C)=CC=CC(C)C(O)C(C)C(O)C(C)C(O)C1C (centres unmarked) [Compound 74, 25-O-deacetyl-3′-hydroxy-5′-[4-methyl-4-acetylamino-1-piperidinyl]benzoxazinorifamycin] | – | – | – | – | >8 |
